Source: patent publication US10681909B2, “Herbicidal triazoles” (FMC Corporation, priority 2014, dated 2020)

Experiments:
waterhemp = assay: Test C postemergence; format: in vivo, Amaranthus rudis
Excerpt: (§1) Seeds of plant species selected from blackgrass (Alopecurus myosuroides), ryegrass, Italian (Italian ryegrass, Lolium multiflorum), wheat (winter wheat, Triticum aestivum), galium (catchweed bedstraw, Galium aparine), corn (Zea mays), crabgrass, large (large crabgrass, Digitaria sanguinalis), foxtail, giant, (giant foxtail, Setaria faberii), johnsongrass (Sorghum halepense), lambsquarters (Chenopodium album), morningglory (Ipomoea coccinea), nutsedge, yellow (yellow nutsedge, Cyperus esculentus), pigweed (Amaranthus retroflexus), ragweed (common ragweed, Ambrosia elatior), soybean (Glycine max), barnyardgrass (Echinochloa crus-galli), oilseed rape (Brassica napus), waterhemp (common waterhemp, Amaranthus rudis), and velvetleaf (Abutilon theophrasti) were planted into a blend of loam soil and sand and treated preemergence with test chemicals formulated in a non-phytotoxic solvent mixture which included a surfactant. At the same time, plants selected from these crop and weed species and also chickweed (common chickweed, Stellaria media), oat, wild (wild oat, Avena fatua), and kochia (Kochia scoparia), were planted in pots containing Sunshine Redi-Earth® planting medium comprising spaghnum peat moss, vermiculite, starter nutrients and dolomitic limestone and treated with postemergence applications of test chemicals formulated in the same manner. Plants ranged in height from 2 to 18 cm (1- to 4-leaf stage) for postemergence treatments. […] A dash (-) response means no test result.

oat, wild = assay: Test C postemergence; format: in vivo, Avena fatua
Excerpt: as §1

chickweed = assay: Test C postemergence; format: in vivo, Stellaria media
Excerpt: as §1

barnyardgrass [1] = assay: Test A preemergence; format: in vivo, Echinochloa crus-galli; details: 0 to 100 scale (0 no effect, 100 complete control)
Summary of the method: (§2)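 Test chemicals, formulated in a surfactant-containing non-phytotoxic solvent mixture, are applied either as a directed soil spray to newly planted seeds or as a postemergence application to plants at the one- to two-leaf stage (2–10 cm). All plants grow in a loam soil and sand blend.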

wheat (winter wheat) = assay: Test C postemergence; format: in vivo, Triticum aestivum
Excerpt: as §1

nutsedge, yellow = assay: Test C postemergence; format: in vivo, Cyperus esculentus
Excerpt: as §1

lambsquarters = assay: Test C postemergence; format: in vivo, Chenopodium album
Excerpt: as §1

pigweed = assay: Test C postemergence; format: in vivo, Amaranthus retroflexus
Excerpt: as §1

sedge, umbrella = assay: Test B flooded paddy test; format: in vivo, Cyperus difformis; details: 250 g ai/ha, applied to paddy water at 2-leaf stage, visual rating after 13 to 15 d, scale 0 (no effect) to 100 (complete control)
Summary of the method: (§3)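 Pots were flooded to 3 cm above the soil at treatment, and compounds were applied directly into the paddy water. That depth was held throughout. After 13 to 15 d in a greenhouse, plants were rated visually against untreated controls.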

kochia = assay: Test C postemergence; format: in vivo, Kochia scoparia
Excerpt: as §1

barnyardgrass [2] = assay: Test B flooded paddy test; format: in vivo, Echinochloa crus-galli; details: 250 g ai/ha, applied to paddy water at 2-leaf stage, visual rating after 13 to 15 d, scale 0 (no effect) to 100 (complete control)
Summary of the method: as §3

foxtail, giant = assay: Test C postemergence; format: in vivo, Setaria faberii
Excerpt: as §1

corn = assay: Test A postemergence; format: in vivo, Zea mays; details: 0 to 100 scale (0 no effect, 100 complete control), approx. 10 d
Summary of the method: as §2

morningglory = assay: Test C postemergence; format: in vivo, Ipomoea coccinea
Excerpt: as §1

ryegrass, Italian = assay: Test C postemergence; format: in vivo, Lolium multiflorum
Excerpt: as §1

rice = assay: Test B flooded paddy test; format: in vivo, Oryza sativa; details: 250 g ai/ha, applied to paddy water at 2-leaf stage, visual rating after 13 to 15 d, scale 0 (no effect) to 100 (complete control)
Summary of the method: as §3

barnyardgrass [3] = assay: Test A postemergence; format: in vivo, Echinochloa crus-galli; details: 0 to 100 scale (0 no effect, 100 complete control), approx. 10 d
Summary of the method: as §2

oilseed rape = assay: Test C postemergence; format: in vivo, Brassica napus
Excerpt: as §1

blackgrass = assay: Test C postemergence; format: in vivo, Alopecurus myosuroides
Excerpt: as §1

wheat = assay: Test A postemergence; format: in vivo, Triticum aestivum; details: 0 to 100 scale (0 no effect, 100 complete control), approx. 10 d
Summary of the method: as §2

Which results are given for `CCOc1nc(-c2ccccc2)nn1Cc1ccnc(C(F)(F)F)c1` [Compound 27]?
Plant response rating (scale of 0 to 100 where 0 is no effect and 100 is complete control) (waterhemp; 31 g ai/ha): 90; Plant response rating (scale of 0 to 100 where 0 is no effect and 100 is complete control) (waterhemp; 62 g ai/ha): 95; Plant response rating (scale of 0 to 100 where 0 is no effect and 100 is complete control) (waterhemp; 125 g ai/ha): 95; Plant response rating (scale of 0 to 100 where 0 is no effect and 100 is complete control) (waterhemp; 250 g ai/ha): 98; Plant response rating (scale of 0 to 100 where 0 is no effect and 100 is complete control) (oat, wild; 31 g ai/ha): 10; Plant response rating (scale of 0 to 100 where 0 is no effect and 100 is complete control) (oat, wild; 62 g ai/ha): 10; Plant response rating (scale of 0 to 100 where 0 is no effect and 100 is complete control) (oat, wild; 125 g ai/ha): 25; Plant response rating (scale of 0 to 100 where 0 is no effect and 100 is complete control) (oat, wild; 250 g ai/ha): 40; Plant response rating (scale of 0 to 100 where 0 is no effect and 100 is complete control) (chickweed; 31 g ai/ha): 95; Plant response rating (scale of 0 to 100 where 0 is no effect and 100 is complete control) (chickweed; 62 g ai/ha): 90; Plant response rating (scale of 0 to 100 where 0 is no effect and 100 is complete control) (chickweed; 125 g ai/ha): 90; Plant response rating (scale of 0 to 100 where 0 is no effect and 100 is complete control) (chickweed; 250 g ai/ha): 90; Plant response rating, Barnyardgrass (barnyardgrass [1]; 125 g ai/ha): 100; Plant response rating, Barnyardgrass (barnyardgrass [1]; 500 g ai/ha, approx. 10 d): 100; Plant response rating (scale of 0 to 100 where 0 is no effect and 100 is complete control) (wheat (winter wheat); 31 g ai/ha): 5; Plant response rating (scale of 0 to 100 where 0 is no effect and 100 is complete control) (wheat (winter wheat); 62 g ai/ha): 5; Plant response rating (scale of 0 to 100 where 0 is no effect and 100 is complete control) (wheat (winter wheat); 125 g ai/ha): 5; Plant response rating (scale of 0 to 100 where 0 is no effect and 100 is complete control) (wheat (winter wheat); 250 g ai/ha): 15; Plant response rating (scale of 0 to 100 where 0 is no effect and 100 is complete control) (nutsedge, yellow; 31 g ai/ha): 5; Plant response rating (scale of 0 to 100 where 0 is no effect and 100 is complete control) (nutsedge, yellow; 62 g ai/ha): 5; Plant response rating (scale of 0 to 100 where 0 is no effect and 100 is complete control) (nutsedge, yellow; 125 g ai/ha): 10; Plant response rating (scale of 0 to 100 where 0 is no effect and 100 is complete control) (nutsedge, yellow; 250 g ai/ha): 10; Plant response rating (scale of 0 to 100 where 0 is no effect and 100 is complete control) (lambsquarters; 31 g ai/ha): 85; Plant response rating (scale of 0 to 100 where 0 is no effect and 100 is complete control) (lambsquarters; 62 g ai/ha): 95; Plant response rating (scale of 0 to 100 where 0 is no effect and 100 is complete control) (lambsquarters; 125 g ai/ha): 98; Plant response rating (scale of 0 to 100 where 0 is no effect and 100 is complete control) (lambsquarters; 250 g ai/ha): 98; Plant response rating (scale of 0 to 100 where 0 is no effect and 100 is complete control) (pigweed; 31 g ai/ha): 85; Plant response rating (scale of 0 to 100 where 0 is no effect and 100 is complete control) (pigweed; 62 g ai/ha): 85; Plant response rating (scale of 0 to 100 where 0 is no effect and 100 is complete control) (pigweed; 125 g ai/ha): 95; Plant response rating (scale of 0 to 100 where 0 is no effect and 100 is complete control) (pigweed; 250 g ai/ha): 95; Plant response rating, Sedge, Umbrella, Flood (sedge, umbrella): 95; Plant response rating (scale of 0 to 100 where 0 is no effect and 100 is complete control) (kochia; 31 g ai/ha): 95; Plant response rating (scale of 0 to 100 where 0 is no effect and 100 is complete control) (kochia; 62 g ai/ha): 95; Plant response rating (scale of 0 to 100 where 0 is no effect and 100 is complete control) (kochia; 125 g ai/ha): 95; Plant response rating (scale of 0 to 100 where 0 is no effect and 100 is complete control) (kochia; 250 g ai/ha): 95; Plant response rating, Barnyardgrass, Flood (barnyardgrass [2]): 50; Plant response rating (scale of 0 to 100 where 0 is no effect and 100 is complete control) (foxtail, giant; 31 g ai/ha): 5; Plant response rating (scale of 0 to 100 where 0 is no effect and 100 is complete control) (foxtail, giant; 62 g ai/ha): 10; Plant response rating (scale of 0 to 100 where 0 is no effect and 100 is complete control) (foxtail, giant; 125 g ai/ha): 10; Plant response rating (scale of 0 to 100 where 0 is no effect and 100 is complete control) (foxtail, giant; 250 g ai/ha): 15; Plant response rating, Corn (corn; 125 g ai/ha): 60; Plant response rating, Corn (corn; 500 g ai/ha): 70; Plant response rating (scale of 0 to 100 where 0 is no effect and 100 is complete control) (morningglory; 31 g ai/ha): 85; Plant response rating (scale of 0 to 100 where 0 is no effect and 100 is complete control) (morningglory; 62 g ai/ha): 80; Plant response rating (scale of 0 to 100 where 0 is no effect and 100 is complete control) (morningglory; 125 g ai/ha): 90; Plant response rating (scale of 0 to 100 where 0 is no effect and 100 is complete control) (morningglory; 250 g ai/ha): 85; Plant response rating (scale of 0 to 100 where 0 is no effect and 100 is complete control) (ryegrass, Italian; 31 g ai/ha): 5; Plant response rating (scale of 0 to 100 where 0 is no effect and 100 is complete control) (ryegrass, Italian; 62 g ai/ha): 20; Plant response rating (scale of 0 to 100 where 0 is no effect and 100 is complete control) (ryegrass, Italian; 125 g ai/ha): 30; Plant response rating (scale of 0 to 100 where 0 is no effect and 100 is complete control) (ryegrass, Italian; 250 g ai/ha): 35; Plant response rating, Rice, Flood (rice): 30; Plant response rating, Barnyardgrass (barnyardgrass [3]; 125 g ai/ha): 90; Plant response rating, Barnyardgrass (barnyardgrass [3]; 500 g ai/ha): 90; Plant response rating (scale of 0 to 100 where 0 is no effect and 100 is complete control) (oilseed rape; Oilsee Rape, 250 g ai/ha): 90; Plant response rating (scale of 0 to 100 where 0 is no effect and 100 is complete control) (oilseed rape; Oilseed Rape, 31 g ai/ha): 90; Plant response rating (scale of 0 to 100 where 0 is no effect and 100 is complete control) (oilseed rape; Oilseed Rape, 62 g ai/ha): 90; Plant response rating (scale of 0 to 100 where 0 is no effect and 100 is complete control) (oilseed rape; Oilseed Rape, 125 g ai/ha): 90; Plant response rating (scale of 0 to 100 where 0 is no effect and 100 is complete control) (blackgrass; 31 g ai/ha): 10; Plant response rating (scale of 0 to 100 where 0 is no effect and 100 is complete control) (blackgrass; 62 g ai/ha): 15; Plant response rating (scale of 0 to 100 where 0 is no effect and 100 is complete control) (blackgrass; 125 g ai/ha): 35; Plant response rating (scale of 0 to 100 where 0 is no effect and 100 is complete control) (blackgrass; 250 g ai/ha): 50; Plant response rating, Wheat (wheat; 125 g ai/ha): 20; Plant response rating, Wheat (wheat; 500 g ai/ha): 70
